Experimental data reported in patent US20220241349A1, “METHOD FOR PRODUCING MARINE ALGAE-DERIVED AGAROTRIOSE, AND USE THEREOF AS PREBIOTIC” (Korea University Research and Business Foundation, priority 2017, published 2022).

Experiments:
[1] = system: Bifidobacterium longum subsp. infantis ATCC 15697 strain; assay: Agarotriose fermentation profile under test tube condition; assay type: cell-based; conditions: 5 g/L agarotriose as carbon source
Procedure: In order to monitor fermentation products, a Bifidobacterium longum subsp. Infantis ATCC 15697 strain was cultured under a test tube condition.

[2] = system: crude enzyme solution of a Bifidobacterium longum subsp. infantis ATCC 15697 strain; assay: Degradation experiment using crude enzyme solution; assay type: biochemical; conditions: 2 mg/mL crude enzyme, 2 mg/mL substrate, 30° C., pH 7.0, 2 hours
Procedure: In order to confirm the metabolic pathway of agarotriose, an experiment was performed on a crude enzyme solution of a Bifidobacterium longum subsp. infantis ATCC 15697 strain. For this purpose, cells and the medium were separated by centrifugation (14,000 rpm, 5 minutes, 4° C.) of a culture solution of Bifidobacterium longum subsp. infantis ATCC 15697 cultured under an agarotriose condition. An extracellular crude enzyme was obtained by ammonium sulfate precipitation of a supernatant. Further, for a cell-free extract including an intracellular crude enzyme, a supernatant crude enzyme was obtained by re-suspending cells in a 20 mM Tris-HCl buffer, and then lysing the cells by sonication, and centrifuging the lysate. During the crude enzyme experiment, 2 mg/mL of the crude enzyme and 2 mg/mL of agarotriose as a substrate were used to perform a reaction under an enzymatic reaction condition of 30° C. and 200 rpm in a 20 mM Tris-HCl buffer (pH 7.0) for 2 hours.

[3] = system: Bifidobacterium longum subsp. infantis ATCC 15697 strain; assay: Cell growth with each purified sugar as single carbon source (Bioscreen C); assay type: cell-based; conditions: 5 g/L of each purified sugar, 37° C.
Procedure: In this case, as a culture composition, 10 g/L of BactoPeptone, 5 g/L of a yeast extract, 2 g/L of K2HPO4 anhydride, 5 g/L of Na acetate anhydride, 2 g/L of NH4 citrate tribasic, 0.2 g/L of Mg sulfate heptahydrate, 0.05 g/L of Mn sulfate, 1 mL/L of Tween 80 (polysorbate 80), 0.5 g/L of cysteine, and 5 g/L of each purified sugar were used and cultured at 37° C.

[4] = Stability test against artificial gastric juice; assay type: in vitro ADME; conditions: 37° C., 3 hours, TLC and HPLC
Source text: In order to test whether agarotriose could reach the intestines without being degraded, agarotriose was reacted in artificial gastric juice for each time, and then it was confirmed whether agarotriose was degraded, using TLC and HPLC.

[5] = system: B. kashiwanohense DSM 21854; assay: Fermentation ability of agarotriose as single carbon source; assay type: cell-based
Procedure: (§1) In order to confirm whether agarotriose also had prebiotic effects on probiotic microorganisms other than a Bifidobacterium longum subsp. infantis ATCC 15697 strain, Bifidobacterium longum subsp. infantis ATCC 17930, Bifidobacterium longum subsp. infantis ATCC 15702, B. bifidum DSM 20082, and B. kashiwanohense DSM 21854 were cultured under agarotriose single carbon source conditions.

B. bifidum DSM 20082 = assay: as above; assay type: cell-based
Procedure: as §1

[6] = system: Bifidobacterium longum subsp. infantis ATCC 15702; assay: as above; assay type: cell-based
Procedure: as §1

[7] = system: Bifidobacterium longum subsp. infantis ATCC 17930; assay: as above; assay type: cell-based
Procedure: as §1

OC[C@H]1OC(O)[C@H](O)[C@@H](O[C@@H]2O[C@H]3CO[C@@H]([C@@H]2O)[C@@H]3O)[C@H]1O (stereo partly shown) [neoagarobiose, reference compound]
fate of the sugar during fermentation [1]: secreted and accumulated outside the cells without being degraded in the cells any more | degradation of the substrate by crude enzyme [2]: not exhibited

OC[C@H]1O[C@@H](O[C@H]2[C@H]3OC[C@@H]2O[C@@H](O[C@@H]2[C@@H](O)[C@H](O)O[C@H](CO)[C@@H]2O)[C@H]3O)[C@H](O)[C@@H](O)[C@H]1O [agarotriose]
fate of the sugar during fermentation [1]: degraded agarotriose into galactose and neoagarobiose | fermentation (cell growth) of the sugar as single carbon source [3]: selectively fermented | agarotriose remained [4]: ≥ 80% | degradation of the substrate by crude enzyme [2]: degrading agarotriose into galactose and neoagarobiose occurred in the cell-free extract | metabolism of agarotriose [5]: metabolized agarotriose and degraded agarotriose into galactose and neoagarobiose | metabolism of agarotriose (B. bifidum DSM 20082): metabolized agarotriose and degraded agarotriose into galactose and neoagarobiose | metabolism of agarotriose [6]: metabolized agarotriose and degraded agarotriose into galactose and neoagarobiose | metabolism of agarotriose [7]: metabolized agarotriose and degraded agarotriose into galactose and neoagarobiose
